Assay results reported in US10301295B2, “Herbicidal compounds” (Syngenta Participations AG, priority 2014, dated 2019).
Like-named read-outs stand apart in the source and are kept apart here.

Legend:
Format in all cases: in vivo
[1] = system: Echinochloa crus-galli (ECHCG); assay: Glasshouse assay for herbicidal activity, pre-/post-emergence (percentage phytotoxicity); settings: Echinochloa crus-galli, Rate 250 g/ha, 100%=total damage, 0%=no damage
Summary of the method: (§1)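 Test plants are sown in pots of standard soil, held one day for pre-emergence or about twelve days for post-emergence, then treated. They grow on under glasshouse control with twice-daily watering, and damage is rated by eye as a percentage at 15 (post) or 20 (pre) days after application.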

[2] = system: Lolium perenne (LOLPE); assay: as above; settings: Lolium perenne, Rate 250 g/ha, 100%=total damage, 0%=no damage
Summary of the method: as §1

[3] = system: Avena fatua (AVEFA); assay: as above; settings: Avena fatua, Rate 250 g/ha, 100%=total damage, 0%=no damage
Summary of the method: as §1

[4] = system: Alopecurus myosuroides (ALOMY); assay: as above; settings: Alopecurus myosuroides, Rate 250 g/ha, 100%=total damage, 0%=no damage
Summary of the method: as §1

[5] = system: wheat; assay: Post-emergence herbicidal activity against cereal crops (wheat) +/- safener, crop selectivity; settings: 100%=total damage to plant, 0%=no damage; for Post-emergence herbicidal activity against wheat (percentage phytotoxicity), +CQC: 250 g/ha, plus safener cloquintocet-mexyl (CQC) applied at 50 g/ha; for percent phytotoxicity (crop damage) to wheat at 250 g/ha: Triticum aestivum, 360 h, without safener, read-out: Post-emergence herbicidal activity against wheat (percentage phytotoxicity), Wheat - CQC
Summary of the method: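 Test plants raised in pots in a glasshouse (24/18 °C warm or 20/16 °C cool species day/night, 16 h light, 65% humidity) and treated post-emergence about 12 days after sowing. Visual percentage phytotoxicity scored 15 days after application (0% = no damage, 100% = total damage).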

[6] = post-emergence, 360 h, post-emergence, visual assessment 15 DAA, read-out: Post-emergence herbicidal activity (percentage phytotoxicity), ECHCG POST
[7] = pre-emergence, 480 h, pre-emergence, visual assessment 20 DAA, read-out: Pre-emergence herbicidal activity (percentage phytotoxicity), ECHCG PRE
[8] = post-emergence, 360 h, post-emergence, visual assessment 15 DAA, read-out: Post-emergence herbicidal activity (percentage phytotoxicity), LOLPE POST
[9] = pre-emergence, 480 h, pre-emergence, visual assessment 20 DAA, read-out: Pre-emergence herbicidal activity (percentage phytotoxicity), LOLPE PRE
[10] = post-emergence, 360 h, post-emergence, visual assessment 15 DAA, read-out: Post-emergence herbicidal activity (percentage phytotoxicity), AVEFA POST
[11] = pre-emergence, 480 h, pre-emergence, visual assessment 20 DAA, read-out: Pre-emergence herbicidal activity (percentage phytotoxicity), AVEFA PRE
[12] = 360 h, post-emergence, visual assessment 15 DAA, read-out: Post-emergence herbicidal activity (percentage phytotoxicity), ALOMY POST
[13] = 480 h, pre-emergence, visual assessment 20 DAA, read-out: Pre-emergence herbicidal activity (percentage phytotoxicity), ALOMY PRE

| Structure (SMILES) | pest or weed control at 250 g/ha [1, 6] | pest or weed control at 250 g/ha [1, 7] | pest or weed control at 250 g/ha [2, 8] | pest or weed control at 250 g/ha [2, 9] | pest or weed control at 250 g/ha [3, 10] | pest or weed control at 250 g/ha [3, 11] | pest or weed control at 250 g/ha [4, 12] | pest or weed control at 250 g/ha [4, 13] | Post-emergence herbicidal activity against wheat (percentage phytotoxicity), +CQC [5] | percent phytotoxicity (crop damage) to wheat at 250 g/ha [5] |
| --- | --- | --- | --- | --- | --- | --- | --- | --- | --- | --- |
| Cc1cc(-n2cc(Cl)cn2)cc(C)c1C1C(=O)CC(CCNC(=O)C2=NOC(C)(C)C2)C1=O (stereo not drawn) [Compound A43] | 100% | 90% | 100% | 90% | 100% | 90% | 90% | 90% | 50% | 90% |
| Cc1cc(C)c(C2C(=O)CC(CCNC(=O)NC(=O)c3cccc(C(F)(F)F)c3)C2=O)c(C)c1 (stereo not drawn) [Compound A66] | 60% | 10% | 80% | 40% | 30% | 0% | 70% | 20% | 40% | 80% |
| Cc1cc(C)c(C2C(=O)CC(CCNC(=O)N(C)c3ccccn3)C2=O)c(C)c1 (stereo not drawn) [Compound A11] | 90% | 100% | 100% | 100% | 90% | 90% | 90% | 100% | 70% | 80% |
| Cc1cc(-n2cc(Cl)cn2)cc(C)c1C1C(=O)CC(CCNC(=O)N(C)c2ccccn2)C1=O (stereo not drawn) [Compound A20] | 100% | 100% | 90% | 80% | 100% | 80% | 80% | 20% | 0% | 80% |
| Cc1cc(C)c(C2C(=O)CC(CCNC(=O)N(C)Cc3ccccc3)C2=O)c(C)c1 (stereo not drawn) [Compound A10] | 90% | 0% | 90% | 0% | 80% | 0% | 80% | 0% | 20% | 70% |
| CC#Cc1cc(C)c(C2C(=O)CC(CCNC(=O)NC(C)(C)C)C2=O)c(C)c1 (stereo not drawn) [Compound A23] | 100% | 100% | 90% | 100% | 100% | 100% | 90% | 100% | 80% | 90% |
| Cc1cc(C)c(C2C(=O)CC(CCNC(=O)C3=NOC(C)(C)C3)C2=O)c(C)c1 (stereo not drawn) [Compound A40, N-[2-[2,4-dioxo-3-(2,4,6-trimethylphenyl)cyclopentyl]ethyl]-5,5-dimethyl-4H-isoxazole-3-carboxamide] | 100% | 100% | 90% | 100% | 100% | 100% | 100% | 90% | 80% | 90% |
| Cc1cc(C)c(C2C(=O)CC(CCNS(=O)(=O)c3ccccc3C(F)(F)F)C2=O)c(C)c1 (stereo not drawn) [Compound A86] | 30% | 60% | 30% | 60% | 0% | 20% | 50% | 20% | 0% | 20% |
| Cc1cc(C)c(C2C(=O)CC(CCNC(=O)NC(=O)c3ccc(Cl)c(F)c3)C2=O)c(C)c1 (stereo not drawn) [Compound A58] | 80% | 0% | 90% | 0% | 10% | 0% | 40% | 0% | 20% | 80% |
| Cc1cc(C)c(C2C(=O)CC(CCNC(=S)Nc3ccccc3)C2=O)c(C)c1 (stereo not drawn) [Compound A90, 1-[2-[2,4-dioxo-3-(2,4,6-trimethylphenyl)cyclopentyl]ethyl]-3-phenyl-thiourea] | 60% | 40% | 20% | 70% | 60% | 0% | 20% | 0% | 20% | 0% |
| CON=C(C)C(=O)NCCC1CC(=O)C(c2c(C)cc(C)cc2C)C1=O (stereo not drawn) [Compound A39] | 50% | 30% | 100% | 90% | 80% | 50% | 80% | 80% | 10% | 60% |
| Cc1cc(C)c(C2C(=O)CC(CCNS(=O)(=O)c3cccs3)C2=O)c(C)c1 (stereo not drawn) [Compound A82] | 20% | 30% | 50% | 70% | 30% | 0% | 40% | 70% | 0% | 0% |
| Cc1cc(-n2cc(Cl)cn2)cc(C)c1C1C(=O)CC(CCNC(=O)Nc2ccccn2)C1=O.Cl (stereo not drawn) [Compound A13] | 100% | 90% | 70% | 50% | 100% | 40% | 90% | 70% | 40% | 70% |
| Cc1cc(C)c(C2C(=O)CC(CCNC(=O)Nc3ccccc3F)C2=O)c(C)c1 (stereo not drawn) [Compound A45] | 40% | 80% | 80% | 90% | 0% | 0% | 20% | 0% | 0% | 0% |
| Cc1cc(C)c(C2C(=O)CC(CCNS(=O)(=O)c3ccc(F)cc3)C2=O)c(C)c1 (stereo not drawn) [Compound A73] | 30% | 30% | 60% | 70% | 60% | 0% | 40% | 70% | 10% | 0% |
